Results reported in the NIST ThermoML archive (doi:10.1016/j.jct.2018.11.014).

Experiment: molar heat capacity at constant pressure
Details: 101.33 kPa, Crystal, Vacuum adiabatic calorimetry

O=C(CO)[C@@H](O)[C@H](O)[C@H](O)CO [D-fructose]
Details	molar heat capacity at constant pressure [J/K/mol]
10 K	0.91
14.06 K	2.815
14.48 K	3.13
14.92 K	3.379
15.36 K	3.634
15.81 K	3.919
16.27 K	4.218
16.77 K	4.66
17.29 K	5.05
17.75 K	5.334
18.24 K	5.753
18.76 K	6.186
19.31 K	6.585
19.89 K	7.065
20 K	7.19
20.47 K	7.626
21.03 K	8.082
21.55 K	8.514
22.09 K	9.015
22.64 K	9.566
23.22 K	10.1
23.84 K	10.61
24.41 K	11.21
24.96 K	11.67
25.84 K	12.67
26.71 K	13.5
27.31 K	14.07
28.19 K	14.91
29.03 K	15.7
29.58 K	16.16
30 K	16.66
30.14 K	16.84
30.73 K	17.43
31.35 K	18.05
31.98 K	18.53
32.62 K	19.19
33.28 K	19.89
33.96 K	20.59
34.65 K	21.26
35.36 K	21.95
36.07 K	22.67
36.78 K	23.42
37.5 K	24.11
38.21 K	24.83
38.91 K	25.52
39.6 K	26.21
40 K	26.59
40.28 K	26.89
40.99 K	27.59
41.73 K	28.3
42.48 K	29.02
43.26 K	29.78
44.03 K	30.54
44.8 K	31.29
45.6 K	32.07
46.41 K	32.85
47.23 K	33.62
48.05 K	34.43
48.87 K	35.18
49.66 K	35.98
50 K	36.27
50.46 K	36.72
51.3 K	37.5
52.17 K	38.33
53.08 K	39.16
54 K	40.03
54.92 K	40.88
55.87 K	41.75
56.84 K	42.65
57.8 K	43.54
58.75 K	44.39
59.68 K	45.25
60 K	45.54
60.61 K	46.09
61.55 K	46.94
62.48 K	47.76
63.4 K	48.61
64.31 K	49.43
65.22 K	50.22
66.18 K	51.08
67.16 K	51.94
68.22 K	52.9
69.33 K	53.88
70 K	54.46
70.43 K	54.83
71.5 K	55.79
72.63 K	56.77
73.81 K	57.78
74.97 K	58.8
76.11 K	59.77
77.23 K	60.74
78.4 K	61.72
79.61 K	62.76
80 K	63.1
80.81 K	63.77
81.98 K	64.8
83.14 K	65.76
84.34 K	66.77
85.59 K	67.84
86.82 K	68.83
88.03 K	69.88
89.22 K	70.89
90 K	71.52
90.46 K	71.89
91.74 K	72.99
93 K	73.99
94.24 K	75.03
95.47 K	76.03
96.74 K	77.1
98.05 K	78.13
99.34 K	79.2
100 K	79.73
100.61 K	80.23
101.88 K	81.25
103.17 K	82.3
104.51 K	83.38
105.83 K	84.42
107.14 K	85.5
108.44 K	86.51
109.77 K	87.55
110 K	87.77
111.13 K	88.69
112.49 K	89.72
113.83 K	90.79
115.15 K	91.82
